Literature values in publication PMC6017357, “In Vitro Inhibitory Effects of Synthetic Cannabinoid EAM-2201 on Cytochrome P450 and UDP-Glucuronosyltransferase Enzyme Activities in Human Liver Microsomes” (Molecules : A Journal of Synthetic Chemistry and Natural …, 2018).
Like-named read-outs stand apart in the source and are kept apart here.

Key:
[1] = target: T1, CYP2C9 (Homo sapiens, UniProt P11712); set-up: CYP2C8, CYP2C9, CYP2C19 and CYP3A4 activities in ultrapooled human liver microsomes were evaluated; from tissue; host or cells: ultrapooled human liver microsomes; method as in PMID 18838506; conditions: typical CYP2C9 mechanism-based inhibitors; cited from earlier work
T1 sequence (P11712 whole entry): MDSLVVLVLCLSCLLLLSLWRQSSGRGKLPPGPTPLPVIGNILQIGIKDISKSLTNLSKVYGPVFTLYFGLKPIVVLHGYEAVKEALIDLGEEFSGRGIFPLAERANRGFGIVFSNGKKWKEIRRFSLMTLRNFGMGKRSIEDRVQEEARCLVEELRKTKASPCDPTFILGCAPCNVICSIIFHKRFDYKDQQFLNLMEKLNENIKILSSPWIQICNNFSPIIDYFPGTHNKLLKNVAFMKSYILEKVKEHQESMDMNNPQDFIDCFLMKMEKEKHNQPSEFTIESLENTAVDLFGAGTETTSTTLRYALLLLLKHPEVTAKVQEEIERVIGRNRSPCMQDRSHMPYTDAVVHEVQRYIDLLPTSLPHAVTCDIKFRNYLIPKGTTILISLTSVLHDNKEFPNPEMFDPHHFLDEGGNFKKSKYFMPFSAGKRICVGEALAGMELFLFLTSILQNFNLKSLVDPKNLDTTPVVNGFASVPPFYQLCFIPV

[2] = target: T2, CYP2C8 (Homo sapiens, UniProt P10632); conditions: cited from earlier work; for time-dependent inhibition of CYP2C8 activity: human liver microsomes
T2 sequence (P10632 1-490): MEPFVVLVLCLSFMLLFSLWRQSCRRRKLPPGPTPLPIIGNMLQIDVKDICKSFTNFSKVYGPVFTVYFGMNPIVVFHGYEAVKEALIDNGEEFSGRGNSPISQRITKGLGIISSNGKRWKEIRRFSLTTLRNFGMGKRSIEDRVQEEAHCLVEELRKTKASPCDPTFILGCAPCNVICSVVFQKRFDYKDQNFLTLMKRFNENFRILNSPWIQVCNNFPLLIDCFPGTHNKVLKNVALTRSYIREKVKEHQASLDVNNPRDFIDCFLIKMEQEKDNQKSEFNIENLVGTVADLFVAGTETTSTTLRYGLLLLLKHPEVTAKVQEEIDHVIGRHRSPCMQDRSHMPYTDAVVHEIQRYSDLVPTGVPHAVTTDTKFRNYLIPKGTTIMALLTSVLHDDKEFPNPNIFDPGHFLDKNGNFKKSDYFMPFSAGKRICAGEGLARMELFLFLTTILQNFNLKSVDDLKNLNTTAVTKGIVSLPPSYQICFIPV

[3] = target: T1, CYP2C9; conditions: read-out: Ki, CYP2C9-catalyzed diclofenac hydroxylation; mixed or competitive inhibition, human liver microsomes; cited from earlier work
[4] = target: T3, CYP2C19 (Homo sapiens, UniProt P33261); conditions: human liver microsomes; cited from earlier work
T3 sequence (P33261 whole entry): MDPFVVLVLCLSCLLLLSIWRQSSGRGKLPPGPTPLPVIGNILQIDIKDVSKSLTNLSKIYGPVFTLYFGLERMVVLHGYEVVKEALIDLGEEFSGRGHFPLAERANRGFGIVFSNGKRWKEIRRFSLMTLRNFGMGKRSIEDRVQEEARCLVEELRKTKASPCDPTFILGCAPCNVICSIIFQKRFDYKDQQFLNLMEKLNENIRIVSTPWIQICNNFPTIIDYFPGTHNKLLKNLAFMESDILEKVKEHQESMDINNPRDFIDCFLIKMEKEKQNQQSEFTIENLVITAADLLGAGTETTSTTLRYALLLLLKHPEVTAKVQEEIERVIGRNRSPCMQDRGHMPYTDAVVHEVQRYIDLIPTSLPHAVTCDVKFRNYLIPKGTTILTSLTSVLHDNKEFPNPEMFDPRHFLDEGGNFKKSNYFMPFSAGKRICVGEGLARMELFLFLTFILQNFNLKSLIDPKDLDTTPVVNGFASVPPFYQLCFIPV

[5] = target: T4, CYP3A4 (Homo sapiens, UniProt P08684); conditions: read-out: Ki, CYP3A4 midazolam 1′-hydroxylation; competitive (AM-2201) and noncompetitive (MAM-2201) inhibition, human liver microsomes; cited from earlier work
T4 sequence (P08684 whole entry): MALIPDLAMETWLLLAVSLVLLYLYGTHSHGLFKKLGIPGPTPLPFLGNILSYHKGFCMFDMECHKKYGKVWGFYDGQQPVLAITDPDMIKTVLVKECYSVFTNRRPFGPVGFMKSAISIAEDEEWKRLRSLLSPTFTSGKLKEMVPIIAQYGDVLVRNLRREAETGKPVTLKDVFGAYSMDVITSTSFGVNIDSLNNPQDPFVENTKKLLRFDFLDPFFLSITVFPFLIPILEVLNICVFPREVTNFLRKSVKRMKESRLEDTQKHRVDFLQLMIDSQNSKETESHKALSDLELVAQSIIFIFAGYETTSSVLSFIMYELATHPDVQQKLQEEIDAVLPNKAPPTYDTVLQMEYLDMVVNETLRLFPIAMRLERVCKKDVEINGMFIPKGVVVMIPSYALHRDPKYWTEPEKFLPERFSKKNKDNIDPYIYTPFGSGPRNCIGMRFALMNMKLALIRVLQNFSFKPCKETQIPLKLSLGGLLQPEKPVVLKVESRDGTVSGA

[6] = target: T5, UGT1A3 (Homo sapiens, UniProt P35503); conditions: human liver microsomes, cited from earlier work; for Ki: read-out: Ki, UGT1A3-catalyzed chenodeoxycholic acid 24-acyl glucuronidation
T5 sequence (P35503 29-534): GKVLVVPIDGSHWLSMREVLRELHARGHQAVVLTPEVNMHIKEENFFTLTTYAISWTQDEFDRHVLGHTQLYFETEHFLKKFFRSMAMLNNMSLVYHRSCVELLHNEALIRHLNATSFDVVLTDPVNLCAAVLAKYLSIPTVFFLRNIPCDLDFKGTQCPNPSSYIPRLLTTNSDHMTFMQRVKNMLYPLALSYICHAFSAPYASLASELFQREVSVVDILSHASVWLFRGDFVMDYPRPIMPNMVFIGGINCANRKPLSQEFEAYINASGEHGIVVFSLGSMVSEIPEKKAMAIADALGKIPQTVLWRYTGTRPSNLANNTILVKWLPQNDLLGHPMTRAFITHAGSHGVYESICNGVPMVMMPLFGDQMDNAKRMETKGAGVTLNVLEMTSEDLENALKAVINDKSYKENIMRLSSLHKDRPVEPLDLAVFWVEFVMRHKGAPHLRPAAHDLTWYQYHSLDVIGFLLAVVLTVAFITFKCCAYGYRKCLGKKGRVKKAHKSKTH

[7] = human liver microsomes; cited from earlier work
[8] = tested on: human recombinant CYP2C19; conditions: mixed-type inhibition, human recombinant CYP2C19 enzymes; read-out: Ki, [S]-mephenytoin hydroxylation activity; cited from earlier work
[9] = target: T4, CYP3A4; conditions: enzyme source not given; cited from earlier work
[10] = target: T2, CYP2C8; set-up: CYP2C8, CYP2C9, CYP2C19 and CYP3A4 activities in ultrapooled human liver microsomes were evaluated; from tissue; host or cells: ultrapooled human liver microsomes; method as in PMID 15304522; conditions: typical CYP2C8 inhibitors; cited from earlier work
[11] = tested on: human recombinant CYP3A4; conditions: competitive inhibition, human recombinant CYP3A4 enzymes; read-out: Ki, CYP3A4-catalyzed diltiazem N-demethylation; cited from earlier work
[12] = target: T6, UGT1A9 (Homo sapiens, UniProt O60656); set-up: method as in PMID 23230132; conditions: human liver and intestinal microsomes; cited from earlier work
T6 construct: ultrapooled human liver microsomes (0.2 mg/mL), 5 mM UDPGA; from tissue; host or cells: ultrapooled human liver microsomes
T6 sequence (O60656 26-530): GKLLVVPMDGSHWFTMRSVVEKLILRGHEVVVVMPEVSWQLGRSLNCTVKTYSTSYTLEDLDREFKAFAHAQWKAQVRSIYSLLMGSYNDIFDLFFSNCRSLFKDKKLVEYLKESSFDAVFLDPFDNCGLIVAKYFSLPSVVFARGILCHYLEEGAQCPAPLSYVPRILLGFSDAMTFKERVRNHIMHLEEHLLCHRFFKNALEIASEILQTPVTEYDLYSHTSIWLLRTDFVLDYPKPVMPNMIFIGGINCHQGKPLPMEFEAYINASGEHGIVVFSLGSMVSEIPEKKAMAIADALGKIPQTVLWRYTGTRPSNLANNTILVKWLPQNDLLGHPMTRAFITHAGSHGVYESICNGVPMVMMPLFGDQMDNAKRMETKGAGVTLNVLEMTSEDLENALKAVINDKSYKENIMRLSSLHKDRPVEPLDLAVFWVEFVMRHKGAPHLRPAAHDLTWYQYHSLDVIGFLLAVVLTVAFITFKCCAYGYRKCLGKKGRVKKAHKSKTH

[13] = target: T7, UGT2B7 (Homo sapiens, UniProt P16662); set-up: method as in PMID 23230132; conditions: human liver and intestinal microsomes; cited from earlier work
T7 construct: ultrapooled human liver microsomes (0.2 mg/mL), 5 mM UDPGA; from tissue; host or cells: ultrapooled human liver microsomes
T7 sequence (P16662 24-529): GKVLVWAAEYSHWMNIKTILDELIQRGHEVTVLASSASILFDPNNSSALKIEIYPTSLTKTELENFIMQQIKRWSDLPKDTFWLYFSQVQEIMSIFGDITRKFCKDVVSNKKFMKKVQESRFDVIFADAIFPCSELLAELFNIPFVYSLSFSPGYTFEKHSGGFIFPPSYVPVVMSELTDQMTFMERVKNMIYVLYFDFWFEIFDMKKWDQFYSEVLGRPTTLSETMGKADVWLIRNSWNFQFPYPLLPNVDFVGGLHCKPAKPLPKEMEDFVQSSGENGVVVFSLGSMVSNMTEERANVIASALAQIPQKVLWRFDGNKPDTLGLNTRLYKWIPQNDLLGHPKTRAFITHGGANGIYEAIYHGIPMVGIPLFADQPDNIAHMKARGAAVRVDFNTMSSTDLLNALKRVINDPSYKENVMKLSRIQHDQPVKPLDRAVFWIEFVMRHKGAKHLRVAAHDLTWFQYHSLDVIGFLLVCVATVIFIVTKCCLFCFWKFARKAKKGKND

[14] = target: T4, CYP3A4; conditions: human liver microsomes, time-dependent inhibitors with reported clinical drug–drug interaction; cited from earlier work
[15] = target: T3, CYP2C19; conditions: typical mechanism-based CYP2C19 inhibitors; cited from earlier work

SMILES: CC(C(=O)O)c1ccc(C(=O)c2cccs2)cc1 (racemic) [(±)-suprofen]
- inactivation efficiency (kinact/Ki), CYP2C9 [1]: 18.3 M⁻¹ s⁻¹

SMILES: O=C(c1cccc2ccccc12)c1cn(CCCCCF)c2ccccc12 [AM-2201]
- inactivation efficiency (kinact/Ki), CYP2C8 [2]: 430 M⁻¹ s⁻¹
- time-dependent inhibition of CYP2C8 activity [2]: exhibited time-dependent inhibition
- Ki [3]: 3.9 µM
- inhibition of CYP2C19-catalyzed [S]-mephenytoin hydroxylation [4]: did not inhibit
- Ki [5]: 4 µM
- Ki [6]: 4.3 µM
- number of metabolites [7]: 19 metabolites

SMILES: Cc1ccc(C(=O)c2cn(CCCCCF)c3ccccc23)c2ccccc12 [MAM-2201, (1-(5-fluoropentyl)-1H-indol-3-yl)(4-methyl-1-naphthalenyl)-methanone]
- inactivation efficiency (kinact/Ki), CYP2C8 [2]: 1230 M⁻¹ s⁻¹
- time-dependent inhibition of CYP2C8 activity [2]: exhibited time-dependent inhibition
- Ki [3]: 5.6 µM
- inhibition of CYP2C19-catalyzed [S]-mephenytoin hydroxylation [4]: did not inhibit
- Ki [5]: 5.4 µM
- Ki [6]: 5 µM
- number of metabolites [7]: 19 metabolites

SMILES: CCCCCc1cc(O)c2c(c1)OC(C)(C)[C@@H]1CCC(C)=C[C@@H]21 [THC, ∆9-tetrahydrocannabinol]
- Ki [8]: 1.93 µM
- Ki [3]: 1.31 µM
- inhibition of CYP3A4 activity [9]: did not inhibit

SMILES: CCCCc1oc2ccccc2c1C(=O)c1cc(I)c(OCCN(CC)CC)c(I)c1 [amiodarone]
- inactivation efficiency (kinact/Ki), CYP2C8 [10]: 9.5 M⁻¹ s⁻¹

SMILES: C=C(C)[C@@H]1CCC(C)=C[C@H]1c1c(O)cc(CCCCC)cc1O [cannabidiol]
- Ki [8]: 0.793 µM
- Ki [11]: 1 µM
- inhibition of UGT1A9 activity [12]: inhibited
- inhibition of UGT2B7 activity [13]: inhibited

SMILES: CCCCCc1cc(O)c2c(c1)OC(C)(C)c1ccc(C)cc1-2 [cannabinol]
- inhibition of UGT1A9 activity [12]: inhibited
- inhibition of UGT2B7 activity [13]: inhibited
- inhibition of CYP3A4 activity [9]: did not inhibit

SMILES: CC[C@H]1OC(=O)[C@H](C)[C@@H](O[C@H]2C[C@@](C)(OC)[C@@H](O)[C@H](C)O2)[C@H](C)[C@@H](O[C@@H]2O[C@H](C)C[C@H](N(C)C)[C@H]2O)[C@](C)(OC)C[C@@H](C)C(=O)[C@H](C)[C@@H](O)[C@]1(C)O [clarithromycin]
- inactivation efficiency (kinact/Ki), CYP3A4 [14]: 46.7 M⁻¹ s⁻¹

SMILES: COC(=O)[C@H](c1ccccc1Cl)N1CCc2sccc2C1 [clopidogrel]
- inactivation efficiency (kinact/Ki), CYP2C19 [15]: 65 M⁻¹ s⁻¹

SMILES: CC1(C)[C@@H](O)CC[C@]2(C)[C@H]3C(=O)C=C4[C@@H]5C[C@@](C)(C(=O)O)CC[C@]5(C)CC[C@@]4(C)[C@]3(C)CC[C@@H]12 [glycyrrhetinic acid]
- IC50 ([6]; read-out: IC50, UGT1A3-catalyzed chenodeoxycholic acid 24-acyl glucuronidation, selective UGT1A3 inhibitor): 4.3 µM

SMILES: NNCCc1ccccc1 [phenelzine]
- inactivation efficiency (kinact/Ki), CYP2C8 [10]: 52.2 M⁻¹ s⁻¹

SMILES: O=C(O)COc1ccc(C(=O)c2cccs2)c(Cl)c1Cl [tienilic acid]
- inactivation efficiency (kinact/Ki), CYP2C9 [1]: 142 M⁻¹ s⁻¹
